For data set [1], the target named is T1, HER2 (Homo sapiens, UniProt P04626). The following applies: cited from earlier work.
The next data set deals with T2, VEGF (Homo sapiens, UniProt P15692).
T2 construct: made in house
T2 sequence (P15692 27-191 isoform P15692-4): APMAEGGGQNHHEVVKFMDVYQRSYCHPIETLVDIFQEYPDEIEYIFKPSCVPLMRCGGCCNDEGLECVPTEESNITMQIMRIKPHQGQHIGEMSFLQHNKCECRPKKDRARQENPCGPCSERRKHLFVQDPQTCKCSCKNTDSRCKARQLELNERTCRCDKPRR
Put plainly: VEGF competition fluorescence polarization (FP) assay. The following applies: for binding to VEGF (in words): competition FP assay. The class given is binding. For orientation: Fluorescence polarisation rises when a labelled molecule tumbles more slowly, as on binding a larger partner.

Data set [2] can be described thus: Half-life of Z-HER2 mimics (Table 16). The following applies: conditions not given; read-out: half-life t1/2. In kind it is in vitro ADME.
Data set [3] addresses T1, HER2. As to the kind of experiment: Z-HER2 mimics binding, ELISA 3. The following applies: read-out: ELISA 3 Ki calcd.
The target of data set [4] is T3, TNFα (binding to immobilized TNFR1) (Homo sapiens, UniProt P01375).
T3 construct: purchased R&D Systems 210-TA-020 (TNFα); 636-R1-025 (sTNF RI)
Put plainly: TNFα/TNFR competition ELISA. The following applies: Table 14; read-out: TNFa-TNFR ELISA IC50. (In general: An ELISA detects its analyte on a solid surface through an enzyme-linked reagent.)
Experimental: The binding of α/β-peptides to TNFα to inhibit binding to TNFR was determined by competition ELISA. […] After immobilization, the plate was washed with PBS/0.05% TWEEN, blocked with 1% BSA in PBS for 2 hours, and then washed with PBS/0.05% TWEEN. Serial dilutions of soluble α/β-peptides in DMSO were prepared (final concentrations=0.04 nM-10 μM), and 10 μL of each of these solutions added to 240 μL of recombinant human TNFα (R&D Systems, 210-TA-020, final concentration=0.080 μg/mL) in PBS/0.05% TWEEN. The α/β-peptides were allowed to pre-incubate with TNFα for 3 hours and then 50 μL of each α/β-peptide/TNFα mixture was added to wells on the ELISA plate and incubated at room temperature for 1 hour. The plate was then washed with PBS/0.05% TWEEN and the presence of TNFα detected by adding 100 μL of a 1:500 dilution of Human TNFα Biotinylated Affinity Purified PAb (R&D Systems, BAF210) and incubating at room temperature for 1 hour. […] Plates were read during the time course of the reaction on a BioTek Synergy 2 microplate reader, reading A405. […] To compare the ability of each soluble α/β-peptide to inhibit the binding of TNFα to immobilized TNFR, IC50 values were calculated by fitting the ELISA absorbance data to a sigmoidal dose-response equation.

Data set [5] relates to VEGF-induced proliferation of human umbilical vein endothelial cells (HUVECs). Put plainly: HUVEC proliferation assay (VEGF165-induced, Click-iT EdU). In kind it is cell-based. The following applies: 50 μM peptide, 10 ng/mL VEGF165.
Experimental: Human umbilical vein endothelial cells (HUVECs) (Lonza, Basel, Switzerland, catalog no. CC2519) were cultured using Medium 199 (M199) (Mediatech, Herndon, Va., USA; 50-050-PB) supplemented with penicillin/steptomycin (HyClone-brand, Thermo Fisher Scientific, Herndon, Va., USA; SV30010) and EGM-2 (Lonza, CC4176) at 37° C. in 5% CO2. Cells were grown to 60-80% confluence and then serum-starved in M199 with 2% cosmic calf serum (CCS) (HyClone-brand, SH30087) overnight. […] Filter sterilized stock solutions of α- or α/β-peptide in PBS were made at a concentration of 200 μM, as determined by UV absorbance. Appropriate dilutions of α- or α/β-peptide were made with PBS, and the resulting solutions were premixed with recombinant human VEGF165 (R&D Systems, 293-VE-010) or recombinant human FGF basic (FGF-2) (R&D Systems, a wholly owned subsidiary of TECHNE Corporation, Minneapolis, Minn., USA; 233-FB-025) in M199/2% CCS and incubated at room temperature for 1 hour. […] Relative cell proliferation was quantified using the “Click-iT”-brand EdU Alexa Flour 488 Assay (Life Technologies, C10337). […] EdU incorporation was detected using Life Technologies' assay protocol. […] Images were analyzed using NIS-Elements AR Imaging Software (Nikon Instruments, Inc., Melville, N.Y., USA) to count the number of proliferating cells (EdU stained) and total number of cells (Hoechst stained). […]

Entries after “also recorded” stand apart in the source; their conditions may differ. *1 amine or outer side, *2 acyl side, *3 side chain or, on linkers, in order; H or OH if unused. Where a SMILES comes first, the peptide text is derived from it. Where no end group is shown, it is not given here. [ ]: non-standard residue; d: D form. The star is where a group is joined. ξ: configuration not given here. ξ(4-Aminopyrrolidine-3-CO) = O=C(C1CNCC1N[*:1])[*:2]; NH(1S,2S-2-CONH2-cPent) = NC(=O)[C@H]1CCC[C@@H]1N*; ACPC(1S,2S) = N[C@H]1CCC[C@@H]1C(=O)*; X1 = O=C([C@H]1CCC[C@@H]1N[*:1])[*:2]; X2 = O=C([C@H]1CNC[C@@H]1N[*:1])[*:2]; Aib = CC(C)(N)C(=O)O Some results are limits rather than exact numbers.

T3 sequence (P01375 77-233 limits assumed): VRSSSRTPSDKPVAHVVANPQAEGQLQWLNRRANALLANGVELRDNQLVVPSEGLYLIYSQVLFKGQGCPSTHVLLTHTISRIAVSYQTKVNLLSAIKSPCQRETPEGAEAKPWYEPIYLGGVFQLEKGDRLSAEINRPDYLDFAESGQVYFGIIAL

As for “82 (VENKFNKEMRNAYWEIALLPNLNNQQKRAFIRSLYDDPG; listed as Homo sapiens) [compound 82]”, in the data set with HER2 [1], the “reported Kd” value is on record as “no blinding”.
For orientation: Ki means the equilibrium dissociation constant of an inhibitor or competing ligand from its target. Consider `CC[C@H](C)[C@H](NC(=O)[C@H](C)NC(=O)[C@H]1CCC[C@@H]1NC(=O)[C@H](C)NC(=O)[C@H](CC(N)=O)NC(=O)[C@H](Cc1c[nH]cn1)NC(=O)[C@H]1CCC[C@@H]1NC(=O)[C@H](CCC(=O)O)NC(=O)[C@@H](N)CCCCN)C(=O)N[C@@H](CCC(=O)O)C(=O)N[C@H](C(=O)N[C@@H](C)C(=O)N[C@@H](CC(C)C)C(=O)N[C@@H](CC(C)C)C(=O)N1CCC[C@H]1C(=O)N[C@@H](CC(N)=O)C(=O)N[C@@H](CC(C)C)C(=O)N[C@@H](CC(N)=O)C(=O)N[C@@H](CC(=O)O)C(=O)N[C@@H](CCC(N)=O)C(=O)N[C@@H](CCC(N)=O)C(=O)N[C@@H](Cc1ccccc1)C(=O)N[C@@H](Cc1c[nH]cn1)C(=O)N[C@@H](C)C(=O)N[C@H]1CCC[C@@H]1C(=O)N[C@H](C(=O)N[C@@H](Cc1c[nH]c2ccccc12)C(=O)N[C@H]1CCC[C@@H]1C(=O)N[C@@H](CC(C)C)C(=O)N[C@H](C(=O)N[C@@H](CC(=O)O)C(=O)N[C@@H](CC(=O)O)C(=O)N1CCC[C@H]1C(=O)N[C@@H](CO)C(N)=O)[C@@H](C)CC)[C@@H](C)CC)[C@@H](C)CC` [E4, KEXHNAXAIEIALLPNLNDQQFHAXIWXLIDDPS] (H-KE[X1]HNA[X1]AIEIALLPNLNDQQFHA[X1]IW[X1]LIDDPS-NH2), for which the Ki at VEGF (Table 5, early mimics, FP assay run once) is more than 50000 nM.
Turning to `CC[C@H](C)[C@H](NC(=O)C1CNCC1NC(=O)[C@H](CCCNC(=N)N)NC(=O)[C@@H](NC(=O)[C@H](CCCCN)NC(=O)C(C)(C)NC(=O)[C@H](CCCNC(=N)N)NC(=O)[C@H](CCCCN)NC(=O)[C@H](CCC(N)=O)NC(=O)C(C)(C)NC(=O)[C@H](CC(N)=O)NC(=O)[C@H](CC(N)=O)NC(=O)[C@H](CC(C)C)NC(=O)[C@H](CC(N)=O)NC(=O)[C@@H]1CCCN1C(=O)[C@H](CC(=O)O)NC(=O)[C@H](CC(C)C)NC(=O)[C@H](C)NC(=O)C(C)(C)NC(=O)[C@H](CCC(=O)O)NC(=O)[C@H](Cc1c[nH]c2ccccc12)NC(=O)[C@H](Cc1ccc(O)cc1)NC(=O)[C@H](CCCNC(=N)N)NC(=O)C1CNCC1NC(=O)[C@H](CCCNC(=N)N)NC(=O)[C@H](CCSC)NC(=O)[C@H]1CCC[C@@H]1NC(=O)[C@H](CCCCN)NC(=O)[C@H](CC(N)=O)NC(=O)[C@@H](N)Cc1ccccc1)[C@@H](C)CC)C(=O)N[C@@H](Cc1ccc(O)cc1)C(=O)N[C@@H](CC(=O)O)C(=O)N[C@@H](CC(=O)O)C(=O)N1CCC[C@H]1C(=O)N[C@@H](CO)C(N)=O` (stereo partly shown) [compound 97] (H-FNK[X1]MR[ξ(4-Aminopyrrolidine-3-CO)]RYWE[Aib]ALDPNLNN[Aib]QKR[Aib]KIR[ξ(4-Aminopyrrolidine-3-CO)]IYDDPS-NH2), the half-life in data set [2] worked out at 4.33 h. Moreover, the inhibitory constant (Ki) at HER2 [3] was 33 nM.
By IC50 is commonly meant the concentration at which inhibition is half-maximal. Take `CC[C@H](C)[C@H](NC(=O)[C@H](CCCNC(=N)N)NC(=O)[C@H](Cc1c[nH]c2ccccc12)NC(=O)CNC(=O)[C@@H](N)CC(C)C)C(=O)NCC(=O)N[C@@H](CCC(=O)O)C(=O)NC(C)(C)C(=O)NCC(=O)N[C@H](C(=O)N[C@@H](CC(=O)O)C(=O)N1CCC[C@H]1C(=O)N[C@@H](CC(N)=O)C(=O)N[C@@H](CC(C)C)C(=O)N[C@@H](CC(N)=O)C(=O)N[C@@H](Cc1c[nH]cn1)C(=O)N[C@@H](CCC(N)=O)C(=O)N[C@@H](CCC(N)=O)C(=O)N[C@@H](Cc1ccccc1)C(=O)N[C@@H](CCCNC(=N)N)C(=O)NC(C)(C)C(=O)N[C@@H](CCCCN)C(=O)N[C@H](C(=O)N[C@@H](CC(C)C)C(=O)N[C@H]1CNC[C@@H]1C(=O)N[C@H](C(=O)N[C@@H](Cc1c[nH]c2ccccc12)C(=O)N[C@H]1CCC[C@@H]1C(N)=O)[C@@H](C)CC)[C@@H](C)CC)[C@@H](C)O` [α/β-TNFα-14, LGWRIGEAGTDPNLNHQQFRAKILZIWX-NH2] (H-LGWRIGE[Aib]GTDPNLNHQQFR[Aib]KIL[X2]IW-{NH(1S,2S-2-CONH2-cPent)}; N-terminus assumed): in data set [4], the concentration for half-maximal inhibition (IC50) was 1000 nM.
With `CC[C@H](C)[C@H](NC(=O)[C@H](CCCNC(=N)N)NC(=O)[C@H](Cc1c[nH]c2ccccc12)NC(=O)CNC(=O)[C@H](CC(C)C)NC(=O)[C@H]1CCC[C@@H]1N)C(=O)NCC(=O)N[C@@H](CCC(=O)O)C(=O)NC(C)(C)C(=O)NCC(=O)N[C@H](C(=O)N[C@@H](CC(=O)O)C(=O)N1CCC[C@H]1C(=O)N[C@@H](CC(N)=O)C(=O)N[C@@H](CC(C)C)C(=O)N[C@@H](CC(N)=O)C(=O)N[C@@H](Cc1c[nH]cn1)C(=O)N[C@@H](CCC(N)=O)C(=O)N[C@@H](CCC(N)=O)C(=O)N[C@@H](Cc1ccccc1)C(=O)N[C@@H](CCCNC(=N)N)C(=O)NC(C)(C)C(=O)N[C@@H](CCCCN)C(=O)N[C@H](C(=O)N[C@@H](CC(C)C)C(=O)N[C@H]1CNC[C@@H]1C(=O)N[C@H](C(=O)N[C@@H](Cc1c[nH]c2ccccc12)C(=O)N[C@H]1CCC[C@@H]1C(N)=O)[C@@H](C)CC)[C@@H](C)CC)[C@@H](C)O` [α/β-TNFα-16, XLGWRIGEAGTDPNLNHQQFRAKILZIWX-NH2] ({ACPC(1S,2S)}-LGWRIGE[Aib]GTDPNLNHQQFR[Aib]KIL[X2]IW-{NH(1S,2S-2-CONH2-cPent)}; N-terminus assumed), the IC50 in data set [4] worked out at 510 nM.
Regarding “KEMHNAYAIEIALLPNLNDQQFHAFIWSLIDDPS-NH2 [Z-VEGF (7-40)]”, at VEGF, the “binding to VEGF (in words)” value is recorded as “showed no binding”.
Regarding “VDNKFNKEMHNAYAIEIALLPNLNDQQFHAFIWSLIDD-NH2 [Z-VEGF (1-38)]”, the “binding to VEGF (in words)” value on VEGF is on record as “shows no binding”; on VEGF (listed as Z-VEGF(1-38)) it was “complete loss of binding”.
On to “VDNKFNKEQHNARAIEAALDPNLNDQQFHAKIWSIIDD-NH2 [α-VEGF-1]”, for which the “inhibition of VEGF-induced HUVEC proliferation (in words)” value in data set [5] is “does not show any inhibition”. Moreover, the “solubility in PBS at 75 μM” value in the data set “Aqueous solubility (PBS)” is given as “fully soluble”. Moreover, at VEGF, the “binding to VEGF (in words)” value was “does not show binding; also recorded: did not recover binding”.
Consider “VDNKFNKEXHNZRAIEAALDPNLNDQQFHAKIWZIIXD [α/β-VEGF-1-linear]”, for which the “binding to VEGF (in words)” value at VEGF is recorded as “lack of binding; also recorded: essentially no binding”.
